Test results: paper PMC12282101, “Heat shock protein 90 chaperone activity is required for hepatitis A virus replication” (Journal of Virology, 2025)
Where a name gives a salt, the structure may show the parent alone.

Experiments:
18f-NLuc reporter virus = assay: microbe, parasite or virus in culture; format: cell-based, Hepatitis A virus; conditions: for activity at 10 µM: Hepatovirus A, Huh-7.5.1, 72 h, read-out: Normalized HAV production
Huh-7.5.1 cells = assay: Cell viability in the chemical screen (Cell TiterGlo); conditions: 10 µM compound, 72 h

SMILES | activity at 10 µM (18f-NLuc reporter virus) [%] | Viability Percent DMSO (Huh-7.5.1 cells) [Percent DMSO] | Normalized HAV production (18f-NLuc reporter virus)
O=C(O[C@@H]1Cc2c(O)cc(O)cc2O[C@@H]1c1cc(O)c(O)c(O)c1)c1cc(O)c(O)c(O)c1 [(-)-Epigallocatechin Gallate] | 105 | 125 | 
CC(=O)OCC(=O)[C@@]1(O)CC[C@H]2[C@@H]3CCC4=CC(=O)C=C[C@]4(C)[C@@]3(Cl)[C@@H](Cl)C[C@@]21C [Dichlorisone Acetate] | 97 | 105 | 
O[C@H]1[C@H](O)[C@@H](O)[C@H](O)[C@@H](O)[C@H]1O [Inositol] | 122 | 93 | 
CC1(C)O[C@H]2CC(=O)OC[C@]23[C@H]2CC[C@@]4(C)[C@H](c5ccoc5)OC(=O)[C@H]5O[C@]54[C@]2(C)C(=O)C[C@@H]13 [Limonin] | 85 | 111 | 
C[C@@]1(F)[C@H](O)[C@@H](CO)O[C@H]1n1ccc(=O)[nH]c1=O [PSI6206] |  | 104 | 1.52
CCOC(=O)c1c(C)n(C)c2ccc(O)cc12 [Mecarbinate] |  | 100 | 1.17
CN(C)c1ccc(C(=C2C=CC(=[N+](C)C)C=C2)c2ccc(N(C)C)cc2)cc1 [Crystal Violet] | 0.413 | 20 | 
Nc1ncnc2c1ncn2[C@@H]1O[C@H](CO)[C@@H](O)[C@@H]1O [Vidarabine] | 104 | 119 | 
COc1ccnc(C[S+]([O-])c2nc3ccc(-n4cccc4)cc3[n-]2)c1C.[Na+] (centres unmarked) [Ilaprazole sodium] |  | 159 | 0.66
Cc1nnc(C(=O)NC(C)(C)c2nc(C(=O)NCc3ccc(F)cc3)c(O)c(=O)n2C)o1 [Raltegravir] | 124 | 132 | 
O=c1[nH]c(=O)n([C@H]2C[C@H](O)[C@@H](CO)O2)cc1C(F)(F)F [Trifluridine] | 107 | 96 | 
Oc1ccc(Cl)c2cccnc12 [Dermofongin] |  | 101 | 0.98
CC(N)C12CC3CC(CC(C3)C1)C2 (centres unmarked) [Rimantadine hydrochloride] | 113 | 98 | 
CN(C(=O)CN(CCO)CC(=O)N(C)C(C)(C)Cc1ccccc1)C(C)(C)Cc1ccccc1 [Oxethazaine] | 76 | 102 | 
O=C(O)c1ccccc1C(=O)Nc1ccc(S(=O)(=O)Nc2nccs2)cc1 [Phthalylsulfathiazole] | 83 | 112 | 
COC(=O)N[C@H](C(=O)N[C@@H](Cc1ccccc1)[C@@H](O)CN(Cc1ccc(-c2ccccn2)cc1)NC(=O)[C@@H](NC(=O)OC)C(C)(C)C)C(C)(C)C [Atazanavir] | 96 | 130 | 
Nc1nc(NC2CC2)c2ncn([C@H]3C=C[C@@H](CO)C3)c2n1 [Abacavir] | 87 | 119 | 
CC(=O)N(CC(O)CO)c1c(I)c(C(=O)NCC(O)CO)c(I)c(C(=O)NCC(O)CO)c1I (centres unmarked) [Iohexol] | 157 | 74 | 
CC(C)CN(C[C@@H](O)[C@H](Cc1ccccc1)NC(=O)O[C@H]1CCOC1)S(=O)(=O)c1ccc(N)cc1 [Amprenavir] | 91 | 121 | 
